# Measurements: US20240092779A1, “USP1 INHIBITORS AND USES THEREOF” (Zentaur Therapeutics USA Inc., priority 2022, published 2024)
# How the values were obtained:
# [1] = Liver microsomal stability (HLM); format: in vitro ADME; conditions: human, liver microsomes, human liver microsomes 0.5 mg/mL, 1 μM compound, NADPH
# Description: Liver Microsomal Stability
# Certain Compounds of the Disclosure were assessed for ADME metabolic stability in human liver microsomes (HLM).
# Samples were prepared by adding 222.5 μL of a master solution (100 mM phosphate buffer and 0.5 mg/mL liver microsomes (HLM)) and 25 μL of a 10 mM NADPH solution to incubation plates, which were then warmed for 10 min. Each compound was separately dissolved in DMSO to prepare 10 mM stock solutions, which were then diluted to 100 μM with acetonitrile. A reaction was started by adding 2.5 μL of the […] solution of each compound to separate incubation plates such that the final concentration of for each compound in each plate was 1 μM. Aliquots of 30 μL were taken from the reaction solution at 0.5, 5, 15, 30 and 60 minutes. The reaction was stopped by the addition of 5 volumes of cold acetonitrile with IS (100 nM alprazolam, 200 nM caffeine and 100 nM tolbutamide). Aliquot of 100 μL of the supernatant was diluted by 100 μL ultra-pure water, and the mixture was used for LC/MS/MS analysis. Peak areas were determined from extracted ion chromatograms. […]. The percentage of remaining parent was calculated from peak area of test compound or PC. The slope value, k, is determined by linear regression of the natural logarithm of percent parent remaining vs. incubation time curve. All calculations are carried out using Microsoft Excel.
# The in vitro half-life (in vitro t1/2) is determined from the slope value:
# Conversion of the in vitro t1/2 (in min) into the in vitro intrinsic clearance (in vitro CLint, (HLM Clint (μL/min/mg proteins))) is done using the following equation: […]
# A: HLM Clint <10 μL/min/mg; B: 10 μL/min/mg≤HLM Clint <50 μL/min/mg; C: HLM Clint ≥50 μL/min/mg.
# HCC1806 Ub-PCNA (USP1) = assay: USP1 Western Blot Protocol (HCC1806 Ub-PCNA); format: cell-based; conditions: Homo sapiens, HCC1806 cells, 4 hours
# Text: USP1 Western Blot Protocol (HCC1806 Ub-PCNA)
# USP1 is a deubiquitinase that catalyze the hydrolysis of iso-peptide bond between ubiquitin and the substrate proteins. Inhibition of USP1 activity results in accumulation of mono-ubiquitinated substrate such as Ub-PCNA. A cell assay was set up to determine the cellular potency of USP1 compounds by monitoring the accumulation of Ub-PCNA. The signal intensity was detected by a specific Ub-PCNA antibody through Western-blot analysis.
# The assay was initiated by seeding HCC1806 cells (ATCC, CRL-2335) into 6-well plates (Corning, 3516), with a seeding density of 3×10^5 cells per well and 2 mL RPMI 1640 culture medium (Gibco, 11875119). The plates were incubated overnight at 37° C. and 5% CO2. Compounds, solubilized in DMSO (Solarbio, D8371) as 1 mM stock solution, were diluted in 4-fold steps for 5-cencentration point dose response plus a no-compound DMSO control. Diluted compounds (2 μL) were transferred into assay wells (with a final DMSO concentration of −0.1%) and the resulted assay plates incubated at 37° C. and 5% CO2 for 4 hours. After aspiration of culture medium, 100 μL of 4° C. RIPA lysis buffer (Boston BioProducts, BP-115D) supplemented with vendor recommended concentrations of protease (Roche, 4693116001) and phosphatase (Roche, 4906837001) inhibitor, was added to each well and incubated for 10 minutes on the ice. Cells were scrapped loose from the bottom of well with a scraper (Corning, 3008), transferred into a 600 μL EP tube, sonicated using Ultrasound (Qsonica, Q800R3, with 30% energy, 5-second pulse on/off cycles at 4° C., for total 2 minutes), centrifuged 13,000 rpm for 15 minutes at 4° C., and then the supernatant transferred to a new 600 μL EP tube. The total protein concentration was determined using BCA kit following vendor recommended protocol (Solarbio, PC0020-500). Loading samples were prepared by diluting the total protein concentration to 1.5 μg/μL with 5 X NuPAGE SDS loading buffer (Beyotime, P0015L) and RIPA lysis buffer, and boiling at 100° C. for 5 minutes.
# 15 μg protein from each sample was loaded onto NuPAGE® Novex 4-12% Bis-Tris Midi Gel, 26 W (Invitrogen, WG1403BOX) and electrophoresis was run at 80 V for 30 minutes and 120 V till the end using 1x NuPAGE® MOPS SDS Running Buffer (Novex, NP0001). The gel was then transferred to nitrocellulose membrane using the dry transfer system (iBlot 2 Transfer Stacks, nitrocellulose, D323001) with a program consisting of 20 V for 1 minute, 23 V for 4 minutes and 25 V for 2 minutes. After the membrane was blocked with 5% BSA (Solarbio, A8020) in 1X TBST (CST, 9997S) for 1 hour at room temperature, specific antibodies (Ubiquityl-PCNA antibody (CST, 13439) at 1:500 dilution, PCNA antibody (Santa Cruz, sc-56) at 1:1000 dilution, and GAPDH (CST, 5174) at 1:2000 dilution in 1 X TBST containing 1% BSA) were added and incubated at room temperature for 1.5 hours. After washing the Nitrocellulose membranes with 1 X TBST for 3 times, 10 minutes each time at room temperature, fluorescently labeled secondary antibodies (anti-rabbit IgG, Licor, 926-32211; anti-mouse IgG, LI-COR, 926-68070) at 1:5000 dilution in 1 X TBST containing 1% BSA were added and incubated for 1 hour at room temperature in the dark. The membranes were then rinsed with 1 X TBST and immersed in the RO water. Imaging of band intensity was acquired with Li—COR imaging system (Li—COR, Odyssey clx ES).
# Percentage of USP1 inhibition (% Vehicle) was calculated by using following equation examining Ub-PCNA upregulation:
# And IC50 was calculated using four-parameter logistic fitting program • Y=Bottom+(Top-Bottom)/(1+10 {circumflex over (()}(LogIC50−X)*Hill Slope)) • X=Log of dose or concentration
# (§1) Certain compounds were tested in the assays.
# MDA-MB-436 cells = assay: CTG Protocol (MDA-MB-436 GI50), antiproliferative activity; format: cell-based, human; conditions: Homo sapiens, 168 h; MDA-MB-436 cells (BRCA1 mutation), 7-day incubation, CellTiter-Glo
# Description: CTG Protocol (MDA-MB-436 GI50)
# Antiproliferative activity of USP1 inhibitors was determined using breast cancer cell line MDA-MB-436 that harbors BRCA1 mutation. MDA-MB-436 cells (ATCC, HTB-130) was seeded with a seeding density of 1000 cells per well and 95 μL DMEM medium (Gibco, 10566016) into 96-well cell plates (Corning, 3610), and incubated overnight at 37° C. and 5% CO2. Compounds were solubilized in DMSO (Solarbio, D8371) as 10 mM stock solution, and then series diluted (3 folds) with DMSO for 9-point dose-response testing. The resulted series dilutions were then jump-diluted 50-fold by cell culture medium to afford the 20×stock solutions (containing 2% DMSO). Treatment was initiated by adding 5 μL of 20×stock solution to the assay plate and incubated at 37° C. and 5% CO2. At the end of 7-day incubation, cell assay plates were removed from incubation and equilibrated to room temperature (20 min). Then 100 μL of CellTiter-Glo (Promega, G9243) reagent, prepared per manufacturer's protocol, was added to each well, and the resulted plates were centrifuged 1,000 rpm for 1 minute, incubated at room temperature in the dark for 20 minutes, sealed with Perkin Elmer sticky film, and the luminescence signal read by Envision (Perkin Elmer).
# Data analysis • a) % Inhibition was calculated using following equation: […]
# X: compound concentration; Y: % Inhibition
# as §1
Structure (SMILES),microsomal CLint at 1 μM [1] [µL/min/mg],IC50 (HCC1806 Ub-PCNA (USP1)) [nM],GI50 (MDA-MB-436 cells) [nM]
"COc1ncnc(C2CC2)c1-c1ncc2ccc(=O)n(Cc3ccc(-c4nc(C(F)(F)F)cn4C)cc3)c2n1 [Compound I-1, 2-(4-Cyclopropyl-6-Methoxypyrimidin-5-Yl)-8-({4-[1-Methyl-4-(Trifluoromethyl)Imidazol-2-Yl]Phenyl}Methyl)Pyrido[2,3-d]Pyrimidin-7-One]",10 to 50,–,–
"COc1ncnc(C2CC2)c1-c1cc2c(ccc(=O)n2Cc2ccc(-c3nc(C(F)(F)F)cn3C)cc2)cn1 [Compound I-11, 7-(4-Cyclopropyl-6-Methoxypyrimidin-5-Yl)-1-({4-[1-Methyl-4-(Trifluoromethyl)Imidazol-2-Yl]Phenyl}Methyl)-1,6-Naphthyridin-2-One]",10 to 50,–,–
"COc1ncnc(C2CC2)c1-c1ncc2ncc(=O)n(Cc3ccc(-c4nc(C(F)(F)F)cn4C)cc3)c2n1 [Compound I-17, 2-(4-cyclopropyl-6-methoxypyrimidin-5-yl)-8-({4-[1-methyl-4-(trifluoromethyl)imidazol-2-yl]phenyl}methyl) pteridin-7-one]",10 to 50,–,–
"[2H]C([2H])([2H])n1cc(C(F)(F)F)nc1-c1ccc(Cn2c(=O)ccc3cnc(-c4c(OC)ncnc4C4CC4)nc32)cc1 [Compound I-31, 2-(4-Cyclopropyl-6-Methoxypyrimidin-5-Yl)-8-({4-[1-(2H3)Methyl-4-(Trifluoromethyl)Imidazol-2-Yl]Phenyl}Methyl)Pyrido[2,3-d]Pyrimidin-7-One]",10 to 50,10 to 100,< 10
"[2H]C([2H])([2H])n1cc(C(F)(F)F)nc1-c1ccc(C([2H])([2H])n2c(=O)ccc3cnc(-c4c(OC)ncnc4C4CC4)nc32)cc1 [Compound I-37, 2-(4-Cyclopropyl-6-Methoxypyrimidin-5-Yl)-8-({4-[1-(2H3)Methyl-4-(Trifluoromethyl)Imidazol-2-Yl]Phenyl}(2H2)Methyl)Pyrido[2,3-d]Pyrimidin-7-One]",10 to 50,10 to 100,10 to 100
[2H]C([2H])([2H])Oc1ncnc(C2CC2)c1-c1ncc2ccc(=O)n(C([2H])([2H])c3ccc(-c4nc(C(F)(F)F)cn4C([2H])([2H])[2H])cc3)c2n1 [Compound I-57],10 to 50,–,–
COc1ncnc(C2CC2)c1-c1ncc2ccc(=O)n(Cc3ccc(-c4nc(C(F)(F)F)cn4C4COC4)cc3)c2n1 [Compound I-59],10 to 50,–,–
"COc1ncnc(C2CC2)c1-c1ncc2cc(-c3cnnn3C)c(=O)n(Cc3ccc(-c4nc(C(F)(F)F)cn4C4CC4)cc3)c2n1 [Compound I-159, 8-({4-[1-cyclopropyl-4-(trifluoromethyl)imidazol-2-yl]phenyl}methyl)-2-(4-cyclopropyl-6-methoxypyrimidin-5-yl)-6-(3-methyl-1,2,3-triazol-4-yl)pyrido[2,3-d]pyrimidin-7-one]",–,< 10,10 to 100

# Further lines, results first:
microsomal CLint at 1 μM [1] [µL/min/mg],IC50 (HCC1806 Ub-PCNA (USP1)) [nM],GI50 (MDA-MB-436 cells) [nM],Structure (SMILES)
–,10 to 100,10 to 100,"COc1ncnc(C2CC2)c1-c1ncc2nc(-c3cn(C)cn3)c(=O)n(Cc3ccc(-c4nc(C(F)(F)F)cn4C4CC4)cc3)c2n1 [Compound I-160, 8-({4-[1-Cyclopropyl-4-(Trifluoromethyl)Imidazol-2-Yl]Phenyl}Methyl)-2-(4-Cyclopropyl-6-Methoxypyrimidin-5-Yl)-6-(1-Methylimidazol-4-Yl)Pteridin-7-One]"
–,< 10,10 to 100,"COc1ncnc(C2CC2)c1-c1ncc2cc(-c3cn(C)cn3)c(=O)n(Cc3ccc(-c4nc(C(F)(F)F)cn4C4CC4)cc3)c2n1 [Compound I-161, 8-({4-[1-cyclopropyl-4-(trifluoromethyl)imidazo]-2-yl]phenylmethyl)-2-(4-cyclopropyl-6-methoxypyrimidin-5-yl)-6-(1-methylimidazol-4-yl)pyrido[2,3-d]pyrimidin-7-one]"
–,< 10,10 to 100,COc1ncnc(C2CC2)c1-c1ncc2cc(-c3cncc(F)c3)c(=O)n(Cc3ccc(-c4nc(C(F)(F)F)cn4C4CC4)cc3)c2n1 [Compound I-162]
–,10 to 100,10 to 100,COc1nn(C)cc1-c1cc2cnc(-c3c(OC)ncnc3C3CC3)nc2n(Cc2ccc(-c3nc(C(F)(F)F)cn3C3CC3)cc2)c1=O [Compound I-164]
–,10 to 100,10 to 100,"COc1ncnc(C2CC2)c1-c1ncc2cc(-c3c(C)cnn3C)c(=O)n(Cc3ccc(-c4nc(C(F)(F)F)cn4C(C)C)cc3)c2n1 [Compound I-165, 2-(4-Cyclopropyl-6-Methoxypyrimidin-5-Yl)-6-(2,4-Dimethylpyrazol-3-Yl)-8-({4-[1-Isopropyl-4-(Trifluoromethyl)Imidazol-2-Yl]Phenyl}Methyl)Pyrido[2,3-d]Pyrimidin-7-One]"
